Like-named read-outs stand apart in the source and are kept apart here.
What was measured:
[1] = system: mitochondrial respiration chain; assay type: biochemical, mouse
Description: The mitochondrial integrity and function was analysed by measuring the oxygen consumption of the different complexes in the mitochondrial respiration chain. Therefore, the isolation and oxygen consumption of the mitochondria were based on the protocol of Frezza et al. (Organelle isolation: functional mitochondria from mouse liver, muscle and cultured fibroblasts. Nat Protoc, 2 (2): 287-295, 2007.) with some modifications. All chemicals and kits were supplied by Sigma Aldrich, Germany.
The oxygen consumption was measured by a microcathode oxygen electrode (S1782, Strathkelvin Instruments, Great Britain). The electrodes were calibrated according to the manufacturer's protocol. Mitochondria (1 mg protein) were suspended in 1 ml experimental buffer ([…], 10 mM Tris/MOPS, 40 mM EGTA/Tris 4, […]). As a substrate of complexes II, III and IV, 5 mM succinate was added. The main read out is the "respiratory control ratio (RCR)" that can be calculated by the ratio of "state 3" and "state 4" respiration, which is equivalent to the ratio of ADP-dependent respiration and ADP-independent respiration. […] If the ADP was consumed completely, the slope of the oxygen consumption ("state 4" respiration) looked similar to the "state 2" slope.

[2] = system: TOM20; details: for TOM20 signal: immunofluorescence, without STS 258, healthy control 672
Description: In addition to autophagy marker proteins, the translocase of the mitochondrial outer membrane 20 (TOM20) was analysed. […] To detect a possible specific loss of TOM20 in liver cells, immunofluorescence staining was carried out.
Finally, the liver tissue samples were stored for histological and molecular biological analysis.
The total protein content was isolated from the frozen tissue samples by an protein isolation buffer pH 7.5 (10 mM Tris, 250 mM saccharose, 1 mM EDTA, 1 % phosphatase-inhibitor, 1 % protease-inhibitor). To keep organelles and membranes as intact as possible, a tightly fitting Dounce homogenizer (Kimble Chase, Mexico) was used resulting in a mild and mechanical homogenisation. Afterward, the homogenate was centrifuged at 900 x rcf for 10 min at 4 °C. The protein content in the post nucleus supernatant was determined using the BCA assay (Sigma Aldrich, Hamburg, Germany). In addition, the samples were incubated for 15 min at room temperature with Laemmli sample buffer to denature the protein structure.
Afterward, the proteins were separated by size using 4-12 % SDS-gels (NuPAGE® Bis-Tris Gel, Invitrogen, Germany) in a SDS-Gel electrophoresis (XCellSureLock® Mini Gel chamber and NuPAGE®MOPS SDS Running Buffer, Invitrogen, Germany). Subsequently, the proteins were transferred to a PVDF-membrane (Roth, Germany). A blocking solution containing tris-buffered saline and tween 20 (TBST) pH 7.5 (10 mM Tris, 100 mM NaCl, 0.1 % Tween 20) 5 % BSA or skim milk (Sigma-Aldrich, Germany) was used to block unspecific bindings. The membrane was incubated with this solution for 1 h at room temperature. Next, the membrane was incubated with a rabbit polyclonal LC3B antibody (Cell Signaling Technology®, Danvers, USA 1:500 dilution), a rabbit polyclonal TOM20 antibody (Abcam®, Cambridge, UK 1:500 dilution) or a rabbit polyclonal β-actin antibody (Abcam®, Cambridge, UK 1:2,000 dilution) overnight at 4 °C. All primary antibodies were diluted in the blocking solution depending on the manufacture's protocol. After washing the membrane with TBST buffer 3 times, a horseradish peroxidase (HRP)-conjugated secondary antibody (1:5,000) was added for 1 h at room temperature. In the last step, the membrane was washed again with TBST buffer 3 times.
Detection of the secondary antibody by chemiluminescence was performed using HRP substrate (Immobilon Western HRP Substrat, Merck Millipore, USA) by the LAS3000 (GE Healthcare, Frankfurt, Germany). Finally, the target proteins were quantified by densitometric analysis in the software ImageJ (National Institutes of Health, USA). B-actin served as loading control to calculate the differences in the protein expression between the groups.
Immunofluorescence staining was used to investigate the TOM20 localisation. […]

[3] = system: hepatic IRI
Description: The mice were imported by embryonic transfer into the animal facility of the Jena University Hospital and conducted under pathogen free conditions. The original mixed Sv129/C57 background was backcrossed to a 99 % C57BL/6 background. In all experiments male WT and Cse^-/- mice between 10 and 12 weeks were used for a standardised hepatic IRI model. […] Body temperature was maintained with a heating plate. During the actual experiment, ischemia was induced in the left lateral lobe of the liver by clamping the hepatic artery and the portal vein using a microaneurysm clamp (FST, Heidelberg, Germany). This procedure results in a segmental (30 %) ischemia. After 1 h, the clamp was removed to initiate the reperfusion. The reperfusion time points were set to 1 h or 24 h. Subsequently, the mice were sacrificed and both, plasma and organs, were harvested. During deep isoflurane (Forene®, Abb-Vie Deutschland GmbH & Co. KG, Ludwigshafen, Germany) anaesthesia, the blood was collected and plasma was generated. Next, the liver, the kidney and the spleen were removed and washed with saline.
The analysis of the ultra-structure of the tissue was performed by TEM. Therefore, the liver had to be perfused with 4 ml/min for 2 min with warm, oxygenated KBH to wash out all blood as described in section 3.4. […]

[4] = system: mitochondria; details: low dose STS, 1 h after reperfusion (Fig. 5a)
Description: The analysis of the ultra-structure of the tissue was performed by TEM. Therefore, the liver had to be perfused with 4 ml/min for 2 min with warm, oxygenated KBH to wash out all blood as described in section 3.4. Afterward, the liver was perfused with fixation buffer pH 7.4 (4 % paraformaldehyde, 2.5 % glutaraldehyde, 0.1 M sodium cacodylate) for 4 min. After the fixation, the liver was removed and cut into 1-2 mm slices. These slides were incubated overnight in the fixation buffer at 4 °C. Subsequently, the slices were cut into cubes and stored in 0.1 M cacodylate buffer.
The samples were embedded in Araldite resin (Piano, Wetzlar, Germany) according to manufacturer's instruction. Semithin sections (1 µm) were stained with Richardson's methylene blue to get a general overview. The areas of the samples were then further trimmed down to 500 x 500 µm. Ultra-thin sections of 80 nm thickness were cut using the ultramicrotome Ultracut E (Reichert-Jung, Wien, Austria). Finally, sections were investigated using a transmission electron microscope EM900 (Zeiss).

[5] = system: hepatic IRI; details: medium dose 0.045 g STS/kg BW into tail vein
Description: Intravital microscopy has been used to analyse the early reperfusion injury in WT and Cse^-/- mice. Assay of plasma parameters and histological staining was applied to analyse later IRI. Rhodamine 123 was injected into the tail vein 5 min before the onset of the experiment. […] The mice were monitored for 2 h without IRI in the sham control group.
In all experiments male WT and Cse^-/- mice between 10 and 12 weeks were used for a standardised hepatic IRI model. One week before the experiments started, 100 µl blood was taken from the orbital sinus. Body temperature was maintained with a heating plate. During the actual experiment, ischemia was induced in the left lateral lobe of the liver by clamping the hepatic artery and the portal vein using a microaneurysm clamp (FST, Heidelberg, Germany). This procedure results in a segmental (30 %) ischemia. […]
IVM was conducted to monitor the mitochondrial membrane potential in vivo with confocal laser scanning microscopy. Therefore, the animals remained under deep general anesthesia using isoflurane and pain reflexes were assessed to gauge the depth of anesthesia. […] Rhodamine 123 was excited at 488 nm (Argon/2 laser) and the emitted light was detected by a monochromatic filter at 530 ± 30 nm (GaAsP detector). […] The standard deviation of the Rhodamine 123 fluorescence signal was calculated to quantify the changes of the mitochondrial granularity over time. […]

[6] = system: liver; details: 1 h ischemia and 1 h reperfusion, all STS doses (Fig. 4b)
Description: To implement the ex vivo IRI model, the liver was perfused via the portal vein with oxygenated Krebs-Henseleit buffer for 5 min one-way and 5 min in reverse. Afterwards, the pump was stopped for 1 h followed by 1 h reperfusion. During reperfusion, tissue samples were collected every 10 min.
The method is based on the reaction of GSH with 5,5'-dithiobis(2-nitrobenzoic acid) (DTNB), whereby 2-nitro-5-mercaptobenzoic acid is cleaved, which then leads to a color change. The frozen liver samples were homogenised in a 0.2 M sodium phosphate buffer (pH 8), containing 0.005 M EDTA, and four volumes of 25 % metaphosphoric acid. Subsequently, the samples were centrifuged at 9000 x rcf for 30 min at 4 °C. The absorbance was read at 412 nm using a Spekol 1100 (Carl Zeiss GmbH, Jena, Germany). A standard curve was performed with GSH.
In addition, the GSSG concentration was assessed fluorometrically (fluorescencespectrophotometer F-2000, Hitachi, Tokio, Japan). […] The fluorescence intensity is proportional to the GSSG concentration. […]
Therefore, a monovascular perfusion of the liver through the portal vein (anterograde perfusion) was carried out. […] During the whole experiment, the pressure within the liver was monitored via a pressure transducer (Biopac®Systems Inc, MP150, CA, USA) to control the physiological pressure of the liver. […]

## sodium hydrogen sulphide [NaHS]
[1]; 200 µM tert-BOOH + 1 µM NaHS (Fig. 3b)
  decline of RCR induced by tert-BOOH oxidative stress: compensated the decline of RCR
[1]; at low doses (Fig. 3a)
  mitochondrial respiratory activity: stimulated mitochondrial respiratory activity
[1]; isolated mitochondria, 0-100 µM NaHS, no oxidative stress (Fig. 3a)
  concentration that induced inhibitory effects on respiratory control ratio (RCR): 100 µM

## sodium thiosulfate [STS]
[2]; healthy controls vs IRI treated livers vs STS treated groups (Fig. 6a)
  TOM20 levels by Western blot: no significant differences
[2]; high dose 0.45 g STS/kg BW
  TOM20 signal: 194 positive cells per mm^2
[2]; low dose 0.0045 g STS/kg BW
  TOM20 signal: 305 positive cells per mm^2
[2]; medium dose 0.045 g STS/kg BW
  TOM20 signal: 422 positive cells per mm^2
[3]; Cse-/- mice after IRI with STS treatment (Fig. 8b)
  mitochondrial ultrastructure by transmission electron microscopy: electron-dense accumulation
[3]; WT mice after IRI with STS treatment (Fig. 8b)
  mitochondrial ultrastructure by transmission electron microscopy: normal mitochondrial architecture
[4]
  mitochondrial structure by transmission electron microscopy: retained their normal structure
[5]; WT and Cse-/- mice, end of reperfusion (120 min)
  mitochondrial granularity: This effect was also detected
[5]; WT mice, beginning of reperfusion (60 min)
  mitochondrial granularity: pronounced recovery of the mitochondrial granularity
[1]
  RCR at higher concentrations: decreased RCR
  mitochondrial respiratory activity: stimulated mitochondrial respiratory activity
[6]
  amount of total glutathione: significantly decreased by IRI independently on STS treatment

Reference: patent EP3299021A1 (priority 2016, dated 2018)
